Consider 41 compounds from patent US20230339937A1, “CONDENSED RING COMPOUNDS THAT INHIBIT H-PGDS” (SATO PHARMACEUTICAL CO., LTD., priority 2020, published 2023).

Where a name gives a salt, the structure may show the parent alone.

The experiment addresses T1, Recombinant human H-PGDS (Homo sapiens, UniProt O60760).
T1 construct: made in house; host or cells: E. coli
As to the kind of experiment: H-PGDS inhibitory activity (prostaglandin D2 production from prostaglandin H2, measured by LC-MS/MS). In kind it is biochemical. The settings on record: recombinant human H-PGDS 1.0 nM expressed in E. coli; prostaglandin H2 25 μM; preincubated 15 minutes on ice, reacted on ice for 1 minute; concentration that inhibits prostaglandin D2 production by 50%. The procedure: The H-PGDS inhibitory activity of each Example compound was measured according to the method reported by LIN, Jiang. et al. (NO 2007/041634).
Recombinant human H-PGDS (final concentration: 1.0 nM) expressed in E. coli was mixed in an assay buffer containing 20 mM Tris-HCl (pH 8.0), 2 mM magnesium chloride, 2 mM reduced glutathione, and 0.5 mg/mL γ-globulin, and 150 μL of the mixture was dispensed into a 8-strip PCR tube (BM Equipment Co., Ltd.). Test compounds (Example compounds) (16.5 μL) at various concentrations dissolved in DMSO were added and the mixture was preincubated for 15 minutes on ice.
Prostaglandin H2 (final concentration: 25 μM) (Cayman Chemical) was dispensed into another 8-strip PCR tube, and the solvent was dried and solidified using a vacuum concentrator (Thermo Fisher Scientific). To the dried and solidified prostaglandin H2 was added 50 μL of the assay buffer containing H-PGDS and each test compound after the preincubation, and the mixture was reacted on ice for 1 minute. 45 μL of this mixture was added to 45 μL of a stop solution (50 mM aqueous citric acid solution containing iron chloride at a final concentration of 4 mg/mL) to stop the reaction. Then, the reaction solution was deproteinized, added to a 96 square deep well plate (SHONANMARUHACHI STEC Co., Ltd.), and the prostaglandin D2 concentration in the reaction solution was measured by LC-MS/MS. ACQUITY (registered trademark) TQD (Waters) was used as a measuring instrument.
Prostaglandin Da production activity (f) in the group with each test compound when a value obtained by subtracting the amount of production of prostaglandin D2 in the group without enzyme, which is non-specific production of prostaglandin D2, from the amount of production of prostaglandin Da in the group without test compound (DMSO-addition group) in each 8-strip PCR tube is 100% was calculated.

T1 sequence (O60760 whole entry): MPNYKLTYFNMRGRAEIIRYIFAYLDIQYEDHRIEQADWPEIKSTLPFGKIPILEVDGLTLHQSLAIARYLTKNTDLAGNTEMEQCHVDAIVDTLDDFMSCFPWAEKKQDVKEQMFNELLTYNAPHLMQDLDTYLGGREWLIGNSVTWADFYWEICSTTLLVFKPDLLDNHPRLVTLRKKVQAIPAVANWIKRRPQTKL

What is called IC50 is the concentration needed to halve the response being measured. As for `CC(C)N(CCNC(=O)c1ccc(-c2nccc3sccc23)cc1)C(C)C` [Example 62, N-[2-(diisopropylamino)ethyl]-4-(thieno[3,2-c]pyridin-4-yl)benzamide dihydrochloride], the IC50 was found to be 86 nM.

For `CC(C)(O)[C@H]1CC[C@H](NC(=O)c2ccc(-c3nccc4sccc34)cc2)CC1` [Example 63, N-[trans-4-(2-hydroxypropan-2-yl)cyclohexyl]-4-(thieno[3,2-c]pyridin-4-yl)benzamide], the IC50 worked out at 1.5 nM.

As for `CC(C)(O)CO[C@H]1CC[C@H](NC(=O)c2ccc(-c3nccc4occc34)cc2)CC1` [Example 64, 4-(furo[3,2-c]pyridin-4-yl)-N-[trans-4-(2-hydroxy-2-methylpropoxy)cyclohexyl]benzamide], the IC50 came to 3.1 nM.

For the compound `O=C(NCc1ccccc1CO)c1ccc(-c2nccc3occc23)cc1` [Example 65, 4-(furo[3,2-c]pyridin-4-yl)-N-[2-(hydroxymethyl)benzyl]benzamide], the IC50 amounted to 9 nM.

As to `O=C(NCc1cccc(CO)c1)c1ccc(-c2nccc3occc23)cc1` [Example 66, 4-(furo[3,2-c]pyridin-4-yl)-N-[3-(hydroxymethyl)benzyl]benzamide], the concentration for half-maximal inhibition (IC50) is 6.4 nM.

Regarding `O=C(NCc1ccccc1)c1ccc(-c2nccc3occc23)cc1` [Example 67, N-benzyl-4-(furo[3,2-c]pyridin-4-yl)benzamide], the 50% inhibitory concentration (IC50) came to 27 nM.

For `CC(O)CNC(=O)c1ccc(-c2nccc3occc23)cc1` (centres unmarked) [Example 68, 4-(furo[3,2-c]pyridin-4-yl)-N-(2-hydroxypropyl) benzamide], the IC50 came to 15 nM.

As for `O=C(NCc1cccc(Cl)c1)c1ccc(-c2nccc3occc23)cc1` [Example 69, N-(3-chlorobenzyl)-4-(furo[3,2-c]pyridin-4-yl)benzamide], the IC50 came to 6 nM.

Turning to `O=C(NCc1ccc(Cl)cc1)c1ccc(-c2nccc3occc23)cc1` [Example 70, N-(4-chlorobenzyl)-4-(furo[3,2-c]pyridin-4-yl)benzamide], the half-inhibitory concentration (IC50) amounted to 12 nM.

As for `O=C(NCc1ccccc1Cl)c1ccc(-c2nccc3occc23)cc1` [Example 71, N-(2-chlorobenzyl)-4-(furo[3,2-c]pyridin-4-yl)benzamide], the IC50 was 12 nM.

As for `O=C(NCc1ccncc1)c1ccc(-c2nccc3occc23)cc1` [Example 72, 4-(furo[3,2-c]pyridin-4-yl)-N-(pyridin-4-ylmethyl) benzamide], the half-maximal inhibitory concentration (IC50) came out at 12 nM.

Turning to `N#Cc1cccc(CNC(=O)c2ccc(-c3nccc4occc34)cc2)c1` [Example 73, N-(3-cyanobenzyl)-4-(furo[3,2-c]pyridin-4-yl)benzamide], the IC50 was found to be 4.8 nM.

Consider `N#Cc1ccc(CNC(=O)c2ccc(-c3nccc4occc34)cc2)cc1` [Example 74, N-(4-cyanobenzyl)-4-(furo[3,2-c]pyridin-4-yl)benzamide], for which the IC50 is 6.3 nM.

As for `CCCCNC(=O)c1ccc(-c2nccc3occc23)cc1` [Example 75, N-butyl-4-(furo[3,2-c]pyridin-4-yl)benzamide], the IC50 was 20 nM.

`CCCCCCNC(=O)c1ccc(-c2nccc3occc23)cc1` [Example 76, 4-(furo[3,2-c]pyridin-4-yl)-N-hexylbenzamide]: the IC50 is 13 nM.

With `O=C(NCc1cccnc1)c1ccc(-c2nccc3occc23)cc1` [Example 77, 4-(furo[3,2-c]pyridin-4-yl)-N-(pyridin-3-ylmethyl) benzamide], the IC50 came to 24 nM.

As for `COCCNC(=O)c1ccc(-c2nccc3occc23)cc1` [Example 78, 4-(furo[3,2-c]pyridin-4-yl)-N-(2-methoxyethyl) benzamide], the 50% inhibitory concentration (IC50) was 50 nM.

In the case of `COCCCNC(=O)c1ccc(-c2nccc3occc23)cc1` [Example 79, 4-(furo[3,2-c]pyridin-4-yl)-N-(3-methoxypropyl) benzamide], the IC50 is 27 nM.

In the case of `CCOCCNC(=O)c1ccc(-c2nccc3occc23)cc1` [Example 80, N-(2-ethoxyethyl)-4-(furo[3,2-c]pyridin-4-yl)benzamide], the half-maximal inhibitory concentration (IC50) was determined as 32 nM.

For `O=C(NCC1CCOC1)c1ccc(-c2nccc3occc23)cc1` (centres unmarked) [Example 81, 4-(furo[3,2-c]pyridin-4-yl)-N-[(tetrahydrofuran-3-yl)methyl] benzamide], the IC50 came to 11 nM.

Turning to `O=C(NCC1CCOCC1)c1ccc(-c2nccc3occc23)cc1` [Example 82, 4-(furo[3,2-c]pyridin-4-yl)-N-[(tetrahydro-2H-pyran-4-yl)methyl] benzamide], the IC50 is 11 nM.

For the compound `O=C(NCC1CC1)c1ccc(-c2nccc3occc23)cc1` [Example 83, N-(cyclopropyl-methyl)-4-(furo[3,2-c]pyridin-4-yl)benzamide], the IC50 is 15 nM.

For `O=C(NCC1CCCC1)c1ccc(-c2nccc3occc23)cc1` [Example 84, N-(cyclopenthyl-methyl)-4-(furo[3,2-c]pyridin-4-yl)benzamide], the IC50 was determined as 14 nM.

On to `O=C(NCC1CCCCC1)c1ccc(-c2nccc3occc23)cc1` [Example 85, N-(cyclohexyl-methyl)-4-(furo[3,2-c]pyridin-4-yl)benzamide], for which the IC50 was 32 nM.

As for `O=C(NC1CCC1)c1ccc(-c2nccc3occc23)cc1` [Example 86, N-cyclobutyl-4-(furo[3,2-c]pyridin-4-yl)benzamide], the half-inhibitory concentration (IC50) turned out to be 21 nM.

`O=C(NC1CCCC1)c1ccc(-c2nccc3occc23)cc1` [Example 87, N-cyclopenthyl-4-(furo[3,2-c]pyridin-4-yl)benzamide]: the IC50 is 12 nM.

Consider `O=C(NC1CCCCC1)c1ccc(-c2nccc3occc23)cc1` [Example 88, N-cyclohexyl-4-(furo[3,2-c]pyridin-4-yl)benzamide], for which the IC50 is 4.2 nM.

In the case of `O=C(Nc1ccccc1)c1ccc(-c2nccc3occc23)cc1` [Example 89, 4-(furo[3,2-c]pyridin-4-yl)-N-phenylbenzamide], the half-inhibitory concentration (IC50) is 3.7 nM.

On to `O=C(NCCCCCCO)c1ccc(-c2nccc3occc23)cc1` [Example 90, 4-(furo[3,2-c]pyridin-4-yl)-N-(6-hydroxyhexyl) benzamide], for which the IC50 worked out at 15 nM.

Turning to `CCC(O)CNC(=O)c1ccc(-c2nccc3occc23)cc1` (centres unmarked) [Example 91, 4-(furo[3,2-c]pyridin-4-yl)-N-(2-hydroxybutyl) benzamide], the IC50 turned out to be 32 nM.

With `CC(C)(O)CNC(=O)c1ccc(-c2nccc3occc23)cc1` [Example 92, 4-(furo[3,2-c]pyridin-4-yl)-N-(2-hydroxy-2-methylpropyl) benzamide], the IC50 stood at 22 nM.

In the case of `O=C(NCc1ccccn1)c1ccc(-c2nccc3occc23)cc1` [Example 93, 4-(furo[3,2-c]pyridin-4-yl)-N-(pyridin-2-ylmethyl) benzamide], the IC50 was determined as 32 nM.

Turning to `O=C(NCC1CCCO1)c1ccc(-c2nccc3occc23)cc1` (centres unmarked) [Example 94, 4-(furo[3,2-c]pyridin-4-yl)-N-[(tetrahydro-furan-2-yl)methyl] benzamide], the IC50 was found to be 12 nM.

Take `O=C(NC1CC1)c1ccc(-c2nccc3occc23)cc1` [Example 95, N-cyclopropyl-4-(furo[3,2-c]pyridin-4-yl)benzamide]: the concentration for half-maximal inhibition (IC50) turned out to be 8.7 nM.

Turning to `O=C(NCCCCO)c1ccc(-c2nccc3occc23)cc1` [Example 96, 4-(furo[3,2-c]pyridin-4-yl)-N-(4-hydroxybutyl) benzamide], the IC50 was 17 nM.

For the compound `O=C(NC1CCc2ccccc21)c1ccc(-c2nccc3occc23)cc1` (centres unmarked) [Example 97, N-(2,3-dihydro-1H-inden-1-yl)-4-(furo[3,2-c]pyridin-4-yl)benzamide], the IC50 came out at 2.8 nM.

As to `CC(C)N(CCNC(=O)c1ccc(-c2nccc3occc23)cc1)C(C)C` [Example 98, N-[2-(diisopropylamino)ethyl]-4-(furo[3,2-c]pyridin-4-yl)benzamide dihydrochloride], the half-maximal inhibitory concentration (IC50) amounted to 107 nM.

As to `Cn1nnnc1N1CCC(NC(=O)c2ccc(-c3nccc4occc34)cc2)CC1` [Example 99, 4-(furo[3,2-c]pyridin-4-yl)-N-[1-(1-methyl-1H-tetrazol-5-yl)piperidin-4-yl]benzamide], the IC50 was 1.6 nM.

With `O=C(Nc1cc(-c2ccccc2)[nH]n1)c1ccc(-c2nccc3occc23)cc1` [Example 100, 4-(furo[3,2-c]pyridin-4-yl)-N-(5-phenyl-1H-pyrazol-3-yl)benzamide], the IC50 is 19 nM.

Turning to `O=C(NC1CCN(c2nccs2)CC1)c1ccc(-c2nccc3occc23)cc1` [Example 101, 4-(furo[3,2-c]pyridin-4-yl)-N-[1-(thiazol-2-yl)piperidin-4-yl]benzamide], the IC50 came out at 1 nM.

As for `NS(=O)(=O)c1ccc(NC(=O)c2ccc(-c3nccc4occc34)cc2)cc1` [Example 102, 4-(furo[3,2-c]pyridin-4-yl)-N-(4-sulfamoylphenyl) benzamide], the IC50 came to 1.8 nM.
